One molecule from paper PMC10043345, “Discovery of BAR502, as potent steroidal antagonist of leukemia inhibitory factor receptor for the treatment of pancreatic adenocarcinoma” (Frontiers in Oncology, 2023) can be followed below.

The experiment concerns MIA PaCa-2 cells. Put plainly: Ki-67/7-AAD IC-FACS cell cycle analysis. It is filed as cell-based, human. As to the method: MIA-PaCa2 cells were seeded in 6-well tissue culture plate (cell density 700 × 10^3/well) and cultured as specified above. Cells were serum-starved for 8 h and then incubated with LIF (10 ng/mL) alone or plus BAR502 (10, 20 µM) or a vehicle for 24 h. The intracellular flow cytometry staining for Ki-67 was performed using the following reagents: Ki-67 Monoclonal Antibody (SolA15), Alexa Fluor™ 488, (eBioscience™, San Diego, California, USA) and 7-AAD to characterize the cell cycle phases G0-G1 and S-G2-M. Before intracellular IC-FACS, staining cells were fixed for 30 min in the dark using IC Fixation buffer (eBioscience™) and then permeabilized using Permeabilization buffer (10X) (eBioscience™). The staining for Annexin V was performed using the Annexin V Antibody (A13199, Thermofisher Scientific, Waltham, MA, USA) to evaluate the apoptosis rate. Briefly, 5 μL of Annexin V Antibody was added to each 100 μL of cell suspension, and cells were incubated the at room temperature for 15 min. Flow cytometry analyses were carried out using a 3-laser standard configuration ATTUNE NxT (LIFe Technologies, Carlsbad, CA, USA). Data were analyzed using FlowJo software (TreeStar) and the gates set using a fluorescence minus-one (FMO) control strategy. […] The channel in which the conjugated Ab is missing is the one for which the fluorescence minus one provides a gating control.

With `CC[C@H]1[C@@H](O)C2C3CC[C@H]([C@H](C)CCO)[C@@]3(C)CCC2[C@@]2(C)CC[C@@H](O)C[C@@H]12` (some centres unmarked) [BAR502], the “effect on LIF-increased S-G2-M transition” value (BAR502 10-20 μM + LIF 10 ng/mL) is recorded as “significantly reversed”. Also, for the setting “LIF 10 ng/mL + BAR502”, the “effect on LIF-induced increase of Ki-67 positive cells” value is on record as “reversed”.
